Assay: Solubility in solvent commonly used in the synthesis of polyimide (NMP, DMAc)
Assay type: physicochemical
Description: In the following descriptions, features and effects of the present disclosure will be described more specifically with reference to some Embodiments and some Comparative Examples. It is noted that without exceeding the scope of the present disclosure, the materials used, their amount and ratio, processing details, processing flow, etc. can be appropriately alternated. Therefore, the present disclosure should not be interpreted restrictively by the Embodiments provided below. Specifically, each Comparative Example and each Embodiment are thoroughly mixed with solvent commonly used in the synthesis of polyimide (e.g., N-methylpyrrolidone (NMP) and dimethylacetamide (DMAc)), and the solubility of each Comparative Example and each Embodiment in the solvent is measured, so as to verify the efficacy of the present disclosure. The detailed description and the measurement results of the solubility of each Comparative Example and each Embodiment are shown in Table 1.

Solubility (g/100 g solvent) (solvent DMAc, dissolution temperature 70° C.) | SMILES | Solubility (g/100 g solvent) (solvent NMP, dissolution temperature 50° C.)
5.7 | NC1CCC(N)CC1 (centres unmarked) [Comparative Example 2, 1,4-cyclohexanediamine] | –
– | Nc1ccc(N)cc1 [Comparative Example 1, para-phenylenediamine] | 4.1

Source: patent publication US11851387B2, “Para-phenylenediamine derivative, 1,4-cyclohexyldiamine derivative, and fabricating method for 1,4-diamine cyclic compound derivative” (Yuanhan Materials Inc., priority 2021, dated 2023)
